Assay results from ChEMBL document CHEMBL4145521, “Regioselective synthesis of 3,4-diaryl-5-unsubstituted isoxazoles, analogues of natural cytostatic combretastatin A4” (Eur J Med Chem, 2018).

Columns and labels:
Type in all cases: functional
[1] = system: SF-295; assay: Cytotoxicity against human SF295 cells incubated for 48 hrs by sulforhodamine B assay; conditions: SF-295, 48 h
[2] = system: OVCAR-5; assay: Cytotoxicity against human OVCAR5 cells assessed as cell growth at 0.1 uM incubated for 48 hrs by sulforhodamine B assay relative to control; conditions: OVCAR-5, 48 h, read-out: Activity
[3] = system: UACC-62; assay: Cytotoxicity against human UACC62 cells assessed as cell growth at 100 uM incubated for 48 hrs by sulforhodamine B assay relative to control; conditions: UACC-62, 48 h, read-out: Activity
[4] = system: SR; assay: Cytotoxicity against human SR cells assessed as cell growth at 0.01 uM incubated for 48 hrs by sulforhodamine B assay relative to control; conditions: read-out: Activity
[5] = system: DU-145; assay: Cytotoxicity against human DU145 cells assessed as cell growth at 10 uM incubated for 48 hrs by sulforhodamine B assay relative to control; conditions: DU-145, 48 h, read-out: Activity
[6] = system: CAKI-1; assay: Cytotoxicity against human Caki1 cells assessed as cell growth at 0.1 uM incubated for 48 hrs by sulforhodamine B assay relative to control; conditions: CAKI-1, 48 h, read-out: Activity
[7] = system: NCI-H322M; assay: Cytotoxicity against human NCI-H322M cells assessed as cell growth at 0.01 uM incubated for 48 hrs by sulforhodamine B assay relative to control; conditions: read-out: Activity
[8] = system: RPMI-8226; assay: Cytotoxicity against human RPMI8226 cells assessed as cell growth at 100 uM incubated for 48 hrs by sulforhodamine B assay relative to control; conditions: RPMI-8226, 48 h, read-out: Activity
[9] = system: BT-549; assay: Cytotoxicity against human BT549 cells assessed as cell growth at 100 uM incubated for 48 hrs by sulforhodamine B assay relative to control; conditions: BT-549, 48 h, read-out: Activity
[10] = system: DU-145; assay: Cytotoxicity against human DU145 cells assessed as cell growth at 0.1 uM incubated for 48 hrs by sulforhodamine B assay relative to control; conditions: DU-145, 48 h, read-out: Activity
[11] = system: Malme-3M; assay: Cytotoxicity against human MALME-3M cells assessed as cell growth at 0.01 uM incubated for 48 hrs by sulforhodamine B assay relative to control; conditions: read-out: Activity
[12] = system: MOLT-4; assay: Cytotoxicity against human MOLT4 cells assessed as cell growth at 0.1 uM incubated for 48 hrs by sulforhodamine B assay relative to control; conditions: MOLT-4, 48 h, read-out: Activity
[13] = system: Malme-3M; assay: Cytotoxicity against human MALME-3M cells assessed as cell growth at 0.1 uM incubated for 48 hrs by sulforhodamine B assay relative to control; conditions: read-out: Activity
[14] = system: PC-3; assay: Cytotoxicity against human PC3 cells incubated for 48 hrs by sulforhodamine B assay; conditions: PC-3, 48 h
[15] = system: SF-295; assay: Cytotoxicity against human SF295 cells assessed as cell growth at 0.01 uM incubated for 48 hrs by sulforhodamine B assay relative to control; conditions: SF-295, 48 h, read-out: Activity
[16] = system: SK-OV-3; assay: Cytotoxicity against human SKOV3 cells assessed as cell growth at 100 uM incubated for 48 hrs by sulforhodamine B assay relative to control; conditions: SK-OV-3, 48 h, read-out: Activity
[17] = system: U-251; assay: Cytotoxicity against human U251 cells incubated for 48 hrs by sulforhodamine B assay; conditions: U-251, 48 h
[18] = system: KM12; assay: Cytotoxicity against human KM12 cells incubated for 48 hrs by sulforhodamine B assay; conditions: KM12, 48 h
[19] = system: TK-10; assay: Cytotoxicity against human TK10 cells assessed as cell growth at 100 uM incubated for 48 hrs by sulforhodamine B assay relative to control; conditions: TK-10, 48 h, read-out: Activity
[20] = system: HOP-62; assay: Cytotoxicity against human HOP62 cells assessed as cell growth at 0.01 uM incubated for 48 hrs by sulforhodamine B assay relative to control; conditions: HOP-62, 48 h, read-out: Activity
[21] = system: HCT-15; assay: Cytotoxicity against human HCT15 cells incubated for 48 hrs by sulforhodamine B assay; conditions: HCT-15, 48 h
[22] = system: A549; assay: Cytotoxicity against human A549/ATCC cells assessed as cell growth at 1 uM incubated for 48 hrs by sulforhodamine B assay relative to control; conditions: A549, 48 h, read-out: Activity
[23] = system: SF-539; assay: Cytotoxicity against human SF539 cells assessed as cell growth at 0.1 uM incubated for 48 hrs by sulforhodamine B assay relative to control; conditions: SF-539, 48 h, read-out: Activity
[24] = system: NCI/ADR-RES; assay: Cytotoxicity against human NCI/ADR-RES cells assessed as cell growth at 10 uM incubated for 48 hrs by sulforhodamine B assay relative to control; conditions: read-out: Activity
[25] = system: MDA-MB-435; assay: Cytotoxicity against human MDA-MB-435 cells assessed as cell growth at 0.1 uM incubated for 48 hrs by sulforhodamine B assay relative to control; conditions: MDA-MB-435, 48 h, read-out: Activity
[26] = system: ACHN; assay: Cytotoxicity against human ACHN cells assessed as cell growth at 100 uM incubated for 48 hrs by sulforhodamine B assay relative to control; conditions: read-out: Activity
[27] = system: SK-OV-3; assay: Cytotoxicity against human SKOV3 cells assessed as cell growth at 0.1 uM incubated for 48 hrs by sulforhodamine B assay relative to control; conditions: SK-OV-3, 48 h, read-out: Activity
[28] = system: CCRF-CEM; assay: Cytotoxicity against human CCRF-CEM cells incubated for 48 hrs by sulforhodamine B assay
[29] = system: HOP-62; assay: Cytotoxicity against human HOP62 cells assessed as cell growth at 10 uM incubated for 48 hrs by sulforhodamine B assay relative to control; conditions: HOP-62, 48 h, read-out: Activity
[30] = system: IGROV-1; assay: Cytotoxicity against human IGROV1 cells incubated for 48 hrs by sulforhodamine B assay; conditions: IGROV-1, 48 h
[31] = read-out: LC50 (the source's name)
[32] = read-out: pLC50 (the source's name) (converted)

COc1ccc(-c2nocc2-c2cc(OC)c(OC)c(OC)c2)cc1
GI50 ([1]; read-out: GI50): 0.0505 µM
CC50 [1, 31]: > 100 µM
TGI ([1]; read-out: TGI): 13.1 µM
GI50 ([1]; read-out: pGI50 (converted)): 0.0501 µM
CC50 [1, 32]: > 100 µM
TGI ([1]; read-out: pTGI (converted)): 13.2 µM
growth at 0.1 µM [2]: 86%
growth at 100 µM [3]: -38%
growth at 0.01 µM [4]: 99%
growth at 10 µM [5]: 11%
growth at 0.1 µM [6]: 62%
growth at 0.01 µM [7]: 95%
growth at 100 µM [8]: -17%
growth at 100 µM [9]: -24%
growth at 0.1 µM [10]: 71%
growth at 0.01 µM [11]: 86%
growth at 0.1 µM [12]: 85%
growth at 0.1 µM [13]: 55%
GI50 ([14]; read-out: GI50): 0.0671 µM
LC50 (concentration killing 50% of cells) ([14]; read-out: LC50): > 100 µM
TGI ([14]; read-out: TGI): 42.5 µM
GI50 ([14]; read-out: pGI50 (converted)): 0.0676 µM
LC50 (concentration killing 50% of cells) ([14]; read-out: pLC50 (converted)): > 100 µM
TGI ([14]; read-out: pTGI (converted)): 42.7 µM
growth at 0.01 µM [15]: 84%
growth at 100 µM [16]: 5%
GI50 ([17]; read-out: GI50): 0.0906 µM
CC50 [17, 31]: > 100 µM
TGI ([17]; read-out: TGI): 65.8 µM
GI50 ([17]; read-out: pGI50 (converted)): 0.0912 µM
CC50 [17, 32]: > 100 µM
TGI ([17]; read-out: pTGI (converted)): 66.1 µM
GI50 ([18]; read-out: GI50): 0.0433 µM
CC50 [18, 31]: > 100 µM
TGI ([18]; read-out: TGI): 13.1 µM
GI50 ([18]; read-out: pGI50 (converted)): 0.0437 µM
CC50 [18, 32]: > 100 µM
TGI ([18]; read-out: pTGI (converted)): 13.2 µM
growth at 100 µM [19]: -10%
growth at 0.01 µM [20]: 85%
GI50 ([21]; read-out: GI50): 0.044 µM
LC50 ([21]; read-out: LC50): > 100 µM
TGI ([21]; read-out: TGI): > 100 µM
GI50 ([21]; read-out: pGI50 (converted)): 0.0437 µM
LC50 ([21]; read-out: pLC50 (converted)): > 100 µM
TGI ([21]; read-out: pTGI): > 100 µM
growth at 1 µM [22]: 28%
growth at 0.1 µM [23]: 65%
growth at 10 µM [24]: 9%
growth at 0.1 µM [25]: 3%
growth at 100 µM [26]: -13%
growth at 0.1 µM [27]: 60%
GI50 ([28]; read-out: GI50): 0.404 µM
LC50 ([28]; read-out: LC50): > 100 µM
TGI ([28]; read-out: TGI): > 100 µM
GI50 ([28]; read-out: pGI50 (converted)): 0.407 µM
LC50 ([28]; read-out: pLC50 (converted)): > 100 µM
TGI ([28]; read-out: pTGI): > 100 µM
growth at 10 µM [29]: 35%
GI50 ([30]; read-out: GI50): 0.346 µM
CC50 [30, 31]: > 100 µM
TGI ([30]; read-out: TGI): > 100 µM
GI50 ([30]; read-out: pGI50 (converted)): 0.347 µM
CC50 [30, 32]: > 100 µM
TGI ([30]; read-out: pTGI): > 100 µM
